# Tests used:
# [1] = tested on: Coxsackie A21 virus (Cox A21); assay: Tissue culture testing, Coxsackie A21 virus in HeLa cells; type: cell-based; settings: 48 and 72 hours, NA = not active at the standard test conditions, read-out: Cox A21: lowest concentration of the compound necessary to cause a 50 percent reduction in cytopathic effect
# Description: (§1) Monolayered HeLa cells in 16 millimeter (mm) tissue culture dishes were treated with 1 ml of culture medium (Eagles medium supplemented with fetal calf serum) containing subject compound at an appropriate concentration or containing no compound at all. Culture media such as those described herein are more fully described in standard texts, as for example, Kuchler's Biochemical Methods in Cell Culture and Virology, Dowden, Hutchinson and Ross, Inc., Stroudsberg, PA (1977). Following treatment, cells were challenged with 0.05 ml of rhinovirus type 1A (RV-1A), rhinovirus type 2 (RV-2) or Coxsackie A21 virus (Cox A21) in culture medium. Some of the compounds were also tested against rhinovirus type 5 (RV-5), rhinovirus type 8 (RV-8) or rhinovirus type 64 (RV-64). Cell controls received no viruses.
# (§2) ^2 Lowest concentration of the compound (μg/ml) necessary to cause
# rhinovirus type 2 (RV-2) = assay: Tissue culture testing, rhinovirus type 2 in HeLa cells; type: cell-based; settings: Enterovirus, 48 and 72 hours, NA = not active at the standard test conditions, read-out: RV-2: lowest concentration of the compound necessary to cause a 50 percent reduction in cytopathic effect
# Description: as §1, §2
# Cox A21 = assay: Single Oral Dose test in mice challenged IP with Cox A21; type: in vivo, Swiss male mice; settings: >3.84 significant (95% confidence level)
# Description: In addition, some of the compounds were tested in animals utilizing the following procedure, hereinafter referred to as the "Single Oral Dose" test. Swiss male mice, 8-12 grams in weight were challenged intraperitoneally (IP) with 0.2 ml of a normally lethal dose, i.e., a virus dose sufficient to cause […].80-100% mortality in infected animals within 10 days of challenge of Cox A21, in phosphate buffered saline containing 1% heat inactivated fetal calf serum. Three hours later mice were treated orally (P.O.) with 0.2 ml of compound suspended in 0.5% hydroxypropyl methylcellulose (Methocel) or with 0.2 ml of 0.5% Methocel containing no compound. […] Mice were observed daily for 7-10 days post-challenge and deaths recorded. A modified Mantel-Haenzel combined chi-square procedure was used to determine significant difference between virus control and treated groups. Chi-square values greater than 3.84 are considered significant (95% confidence level) in this test.
# Coxsackie A21 virus = assay: Continuous Oral Feeding test in mice challenged IP with Coxsackie A21 virus; type: in vivo; settings: po, 0.06 % in diet, 240 h
# Description: Some of the compounds were also tested in animals utilizing the following procedure, hereainafter referred to as the "Continuous Oral Feeding" test. Coxsackie A21 virus grown on HeLa cells was administered at a concentration that produces 80 to 100% deaths in mice weighing 8 to 12 grams within 10 days, when the mice are injected (IP) with 0.2 ml of virus preparation. Mice were placed on diets containing test compound dispersed in plain commercially available rodent mash chow at a concentration of 0.06% (weight percent) on day 0. On day 1 the mice were challenged with the virus preparation, 0.2 ml/mouse, (IP). Deaths in both control and experimental groups were recorded for the 10 days and the results analyzed by a chi-square (.chi.^2) test. Chi-square values greater than 3.84 indicate the compound is active (95% confidence level).
# rhinovirus type 8 (RV-8) = assay: Tissue culture testing, rhinovirus type 8 in HeLa cells; type: cell-based; settings: Enterovirus, 48 and 72 hours, NA = not active at the standard test conditions, read-out: RV-8: lowest concentration of the compound necessary to cause a 50 percent reduction in cytopathic effect
# Description: as §1, §2
# [2] = tested on: rhinovirus type 1A (RV-1A); assay: Tissue culture testing, rhinovirus type 1A in HeLa cells; type: cell-based; settings: Enterovirus, 48 and 72 hours, NA = not active at the standard test conditions, read-out: RV-1A: lowest concentration of the compound necessary to cause a 50 percent reduction in cytopathic effect
# Description: as §1, §2
# [3] = Cytotoxicity in tissue culture testing (HeLa monolayers); type: cell-based; settings: human; HeLa cells; observed at 48 and 72 hours post-treatment; read-out: Cytotoxicity: concentration of the compound found to be toxic to the cell
# Description: as §1
# ^1 Cytotoxicity figures represent the concentration of the compound, […]
# Rhinovirus Type 56 = assay: Inhibition of cytopathic effect in WI-38 cell culture tubes, rhinovirus type 56; type: cell-based; settings: Enterovirus; 12.5 μg/ml; WI-38 cells; read-out: Inhibition grade, Rhinovirus Type 56
# Description: (§3) The test compound was dissolved in an appropriate solvent (generally dimethyl sulfoxide) and incubated at 56° C. for at least 15 minutes and this solution was then used to prepare various test solutions having the desired concentration of test compound in preheated WI maintenance medium (49% Eagles, 49% medium 199, 2% fetal calf serum and antibiotics).
# (§4) Triplicate cell culture tubes (WI-38 human embryonic lung cell culture tubes) were fed with 1 ml of medium containing the compound at specified concentrations and inoculated with 3-300 TCID50 (3-300 times the tissue culture infective dose 50, i.e., the dose required to infect 50% of the cell cultures tested). Simultaneous viral titrations were performed. The tissue cultures were supplemented with fresh medium when necessary (around 3-4 days) until viral titrations were completed.
# (§5) The cell culture tubes were examined dialy for cytopathic effect. […] Comparisons were made at that time with the percentage of cell sheet destruction in tubes containing virus compound mixtures. Observed differences of 75% or more were graded "+", 74-50% as "±", and less than 50% as "-" inhibition.
# [4] = tested on: rhinovirus type 64 (RV-64); assay: Tissue culture testing, rhinovirus type 64 in HeLa cells; type: cell-based; settings: Enterovirus, 48 and 72 hours, NA = not active at the standard test conditions, read-out: RV-64: lowest concentration of the compound necessary to cause a 50 percent reduction in cytopathic effect
# Description: as §1, §2
# Rhinovirus Type 21 = assay: Inhibition of cytopathic effect in WI-38 cell culture tubes, rhinovirus type 21; type: cell-based; settings: Enterovirus; 12.5 μg/ml; WI-38 cells; read-out: Inhibition grade, Rhinovirus Type 21
# Description: as §3, §4, §5
# Rhinovirus Type 6 = assay: Inhibition of cytopathic effect in WI-38 cell culture tubes, rhinovirus type 6; type: cell-based; settings: Enterovirus; 12.5 μg/ml; WI-38 cells; read-out: Inhibition grade, Rhinovirus Type 6
# Description: as §3, §4, §5
# Rhinovirus Type 10 = assay: Inhibition of cytopathic effect in WI-38 cell culture tubes, rhinovirus type 10; type: cell-based; settings: Enterovirus; 12.5 μg/ml; WI-38 cells; read-out: Inhibition grade, Rhinovirus Type 10
# Description: as §3, §4, §5
# Rhinovirus Type 68 = assay: Inhibition of cytopathic effect in WI-38 cell culture tubes, rhinovirus type 68; type: cell-based; settings: Enterovirus; 12.5 μg/ml; WI-38 cells; read-out: Inhibition grade, Rhinovirus Type 68
# Description: as §3, §4, §5
# Rhinovirus Type 19 = assay: Inhibition of cytopathic effect in WI-38 cell culture tubes, rhinovirus type 19; type: cell-based; settings: Enterovirus; 12.5 μg/ml; WI-38 cells; read-out: Inhibition grade, Rhinovirus Type 19
# Description: as §3, §4, §5
# Rhinovirus Type 75 = assay: Inhibition of cytopathic effect in WI-38 cell culture tubes, rhinovirus type 75; type: cell-based; settings: Enterovirus; 12.5 μg/ml; WI-38 cells; read-out: Inhibition grade, Rhinovirus Type 75
# Description: as §3, §4, §5
# Rhinovirus Type 81 = assay: Inhibition of cytopathic effect in WI-38 cell culture tubes, rhinovirus type 81; type: cell-based; settings: Enterovirus; 12.5 μg/ml; WI-38 cells; read-out: Inhibition grade, Rhinovirus Type 81
# Description: as §3, §4, §5
# Rhinovirus Type 60 = assay: Inhibition of cytopathic effect in WI-38 cell culture tubes, rhinovirus type 60; type: cell-based; settings: Enterovirus; 12.5 μg/ml; WI-38 cells; read-out: Inhibition grade, Rhinovirus Type 60
# Description: as §3, §4, §5
# Rhinovirus Type 17 = assay: Inhibition of cytopathic effect in WI-38 cell culture tubes, rhinovirus type 17; type: cell-based; settings: Enterovirus; 12.5 μg/ml; WI-38 cells; read-out: Inhibition grade, Rhinovirus Type 17
# Description: as §3, §4, §5
# Rhinovirus Type 39 = assay: Inhibition of cytopathic effect in WI-38 cell culture tubes, rhinovirus type 39; type: cell-based; settings: Enterovirus; 12.5 μg/ml; WI-38 cells; read-out: Inhibition grade, Rhinovirus Type 39
# Description: as §3, §4, §5
# Rhinovirus Type 13 = assay: Inhibition of cytopathic effect in WI-38 cell culture tubes, rhinovirus type 13; type: cell-based; settings: Enterovirus; 12.5 μg/ml; WI-38 cells; read-out: Inhibition grade, Rhinovirus Type 13
# Description: as §3, §4, §5
# Rhinovirus Type 29 = assay: Inhibition of cytopathic effect in WI-38 cell culture tubes, rhinovirus type 29; type: cell-based; settings: Enterovirus; 12.5 μg/ml; WI-38 cells; read-out: Inhibition grade, Rhinovirus Type 29
# Description: as §3, §4, §5
# Rhinovirus Type 4 = assay: Inhibition of cytopathic effect in WI-38 cell culture tubes, rhinovirus type 4; type: cell-based; settings: Enterovirus; 12.5 μg/ml; WI-38 cells; read-out: Inhibition grade, Rhinovirus Type 4
# Description: as §3, §4, §5
# Rhinovirus Type 64 = assay: Inhibition of cytopathic effect in WI-38 cell culture tubes, rhinovirus type 64; type: cell-based; settings: Enterovirus; 12.5 μg/ml; WI-38 cells; read-out: Inhibition grade, Rhinovirus Type 64
# Description: as §3, §4, §5
# Rhinovirus Type 58 = assay: Inhibition of cytopathic effect in WI-38 cell culture tubes, rhinovirus type 58; type: cell-based; settings: Enterovirus; 12.5 μg/ml; WI-38 cells; read-out: Inhibition grade, Rhinovirus Type 58
# Description: as §3, §4, §5
# Hanks Untyped = assay: Inhibition of cytopathic effect in WI-38 cell culture tubes, Hanks Untyped; type: cell-based, rhinovirus; settings: Enterovirus; 12.5 μg/ml; WI-38 cells; read-out: Inhibition grade, Hanks Untyped
# Description: as §3, §4, §5
# Rhinovirus Type 59 = assay: Inhibition of cytopathic effect in WI-38 cell culture tubes, rhinovirus type 59; type: cell-based; settings: Enterovirus; 12.5 μg/ml; WI-38 cells; read-out: Inhibition grade, Rhinovirus Type 59
# Description: as §3, §4, §5
# Rhinovirus Type 74 = assay: Inhibition of cytopathic effect in WI-38 cell culture tubes, rhinovirus type 74; type: cell-based; settings: Enterovirus; 12.5 μg/ml; WI-38 cells; read-out: Inhibition grade, Rhinovirus Type 74
# Description: as §3, §4, §5
# Rhinovirus Type 8 = assay: Inhibition of cytopathic effect in WI-38 cell culture tubes, rhinovirus type 8; type: cell-based; settings: Enterovirus; 12.5 μg/ml; WI-38 cells; read-out: Inhibition grade, Rhinovirus Type 8
# Description: as §3, §4, §5
# rhinovirus type 5 (RV-5) = assay: Tissue culture testing, rhinovirus type 5 in HeLa cells; type: cell-based; settings: Enterovirus, 48 and 72 hours, NA = not active at the standard test conditions, read-out: RV-5: lowest concentration of the compound necessary to cause a 50 percent reduction in cytopathic effect
# Description: as §1, §2
# [5] = 600 mg/kg P.O. 3 h after IP challenge
structure (smiles),measurement,setting,value
"CCS(=O)(=O)c1ccc(Oc2ccc(Oc3ccccc3)cc2)nc1 [Example 44, 5-(ethylsulfonyl)-2-(4-phenoxyphenoxy)pyridine]",EC50,[1],3.12 mg/L
same,EC50,rhinovirus type 2 (RV-2),3.12 mg/L
same,"Single Oral Dose X^2 (chi-square, deaths vs virus control)",Cox A21; [5],0.196
same,"Continuous Oral Feeding X^2 (chi-square, deaths vs control)",Coxsackie A21 virus,1.58
same,EC50,rhinovirus type 8 (RV-8),6.25 mg/L
same,EC50,[2],6.25 mg/L
same,MCC,[3],6.25 µg/mL
"CS(=O)(=O)c1ccc(Oc2ccc(Cl)cc2)nc1 [Example 32, 2-(4-chlorophenoxy)-5-(methylsulfonyl)pyridine]",EC50,[1],3.12 mg/L
same,inhibition at 12.5 µg/mL,Rhinovirus Type 56,≥ 75%
same,EC50,[4],1.25 mg/L
same,inhibition at 12.5 µg/mL,Rhinovirus Type 21,50 to 74%
same,EC50,rhinovirus type 2 (RV-2),2.5 mg/L
same,inhibition at 12.5 µg/mL,Rhinovirus Type 6,50 to 74%
same,inhibition at 12.5 µg/mL,Rhinovirus Type 10,≥ 75%
same,inhibition at 12.5 µg/mL,Rhinovirus Type 68,≥ 75%
same,"Single Oral Dose X^2 (chi-square, deaths vs virus control)",Cox A21; 200 mg/kg P.O. 3 h after IP challenge,52.866
same,inhibition at 12.5 µg/mL,Rhinovirus Type 19,≥ 75%
same,inhibition at 12.5 µg/mL,Rhinovirus Type 75,< 50%
same,inhibition at 12.5 µg/mL,Rhinovirus Type 81,50 to 74%
same,inhibition at 12.5 µg/mL,Rhinovirus Type 60,≥ 75%
same,inhibition at 12.5 µg/mL,Rhinovirus Type 17,≥ 75%
same,inhibition at 12.5 µg/mL,Rhinovirus Type 39,< 50%
same,inhibition at 12.5 µg/mL,Rhinovirus Type 13,< 50%
same,EC50,[2],1.25 mg/L
same,inhibition at 12.5 µg/mL,Rhinovirus Type 29,≥ 75%
same,inhibition at 12.5 µg/mL,Rhinovirus Type 4,≥ 75%
same,inhibition at 12.5 µg/mL,Rhinovirus Type 64,≥ 75%
same,inhibition at 12.5 µg/mL,Rhinovirus Type 58,≥ 75%
same,inhibition at 12.5 µg/mL,Hanks Untyped,≥ 75%
same,inhibition at 12.5 µg/mL,Rhinovirus Type 59,≥ 75%
same,MCC,[3],50 µg/mL
same,inhibition at 12.5 µg/mL,Rhinovirus Type 74,≥ 75%
same,inhibition at 12.5 µg/mL,Rhinovirus Type 8,< 50%
"CS(=O)(=O)c1ccc(Oc2ccc(Br)cc2)nc1 [Example 29, 2-(4-bromophenoxy)-5-(methylsulfonyl)pyridine]",EC50,[1],5 mg/L
same,EC50,[4],0.625 mg/L
same,EC50,rhinovirus type 2 (RV-2),0.625 mg/L
same,"Single Oral Dose X^2 (chi-square, deaths vs virus control)",Cox A21; [5],5.275
same,"Continuous Oral Feeding X^2 (chi-square, deaths vs control)",Coxsackie A21 virus,20.885
same,EC50,rhinovirus type 8 (RV-8),6.25 mg/L
same,EC50,[2],0.625 mg/L
same,EC50,rhinovirus type 5 (RV-5),25 mg/L
same,MCC,[3],50 µg/mL
"CS(=O)(=O)c1ccc(Oc2ccc(C#N)cc2)nc1 [Example 30, 4-((5-(methylsulfonyl)-2-pyridinyl)oxy)benzonitrile]",EC50,[1],6.25 mg/L
same,EC50,[4],25 mg/L
same,EC50,rhinovirus type 2 (RV-2),50 mg/L
same,"Single Oral Dose X^2 (chi-square, deaths vs virus control)",Cox A21; [5],30.960
same,"Continuous Oral Feeding X^2 (chi-square, deaths vs control)",Coxsackie A21 virus,24.144
same,EC50,rhinovirus type 8 (RV-8),25 mg/L
same,EC50,[2],50 mg/L
same,EC50,rhinovirus type 5 (RV-5),50 mg/L
same,MCC,[3],> 100 µg/mL
